Data reported in PubChem BioAssay (NCI).
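Test compounds were applied to cells in 96-well plates for 48 hours at 5 doses. GI50 = concentration required for 50% inhibition of growth. The concentration for full growth arrest is given as TGI.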

Key:
Assay in all cases: NCI tumour cell line growth inhibition, 48 h
LOX IMVI melanoma = system: LOX IMVI melanoma
NCI-H23 lung = system: NCI-H23 lung
EKVX NSCLC = system: EKVX NSCLC
SK-OV-3 ovarian = system: SK-OV-3 ovarian
A498 renal = system: A498 renal
UACC-257 melanoma = system: UACC-257 melanoma
A549 NSCLC = system: A549 NSCLC
KM12 colon = system: KM12 colon
HCT-15 colon = system: HCT-15 colon
MDA-MB-231 breast = system: MDA-MB-231 breast
HS 578T breast = system: HS 578T breast
T-47D breast = system: T-47D breast
OVCAR-4 ovarian = system: OVCAR-4 ovarian
OVCAR-5 ovarian = system: OVCAR-5 ovarian
CAKI-1 renal = system: CAKI-1 renal
SF-295 CNS = system: SF-295 CNS
MALME-3M melanoma = system: MALME-3M melanoma
PC-3 prostate = system: PC-3 prostate
HOP-62 NSCLC = system: HOP-62 NSCLC
ACHN renal = system: ACHN renal
MCF7 breast = system: MCF7 breast
MOLT-4 leukemia = system: MOLT-4 leukemia
U251 CNS = system: U251 CNS
NCI-H226 lung = system: NCI-H226 lung
OVCAR-3 ovarian = system: OVCAR-3 ovarian
COLO 205 colon = system: COLO 205 colon
NCI-H522 lung = system: NCI-H522 lung
SF-539 CNS = system: SF-539 CNS
TK-10 renal = system: TK-10 renal
K-562 leukemia = system: K-562 leukemia
NCI/ADR-RES ovarian = system: NCI/ADR-RES ovarian
M14 melanoma = system: M14 melanoma
HCC-2998 colon = system: HCC-2998 colon
SW-620 colon = system: SW-620 colon
DU-145 prostate = system: DU-145 prostate
BT-549 breast = system: BT-549 breast
HOP-92 NSCLC = system: HOP-92 NSCLC
SK-MEL-28 melanoma = system: SK-MEL-28 melanoma
SN12C renal = system: SN12C renal
786-0 renal = system: 786-0 renal
SK-MEL-2 melanoma = system: SK-MEL-2 melanoma
SK-MEL-5 melanoma = system: SK-MEL-5 melanoma
CCRF-CEM leukemia = system: CCRF-CEM leukemia
RXF 393 renal = system: RXF 393 renal
OVCAR-8 ovarian = system: OVCAR-8 ovarian
UACC-62 melanoma = system: UACC-62 melanoma
HCT-116 colon = system: HCT-116 colon
NCI-H460 lung = system: NCI-H460 lung
MDA-MB-435 = system: MDA-MB-435
SNB-19 CNS = system: SNB-19 CNS
HL-60(TB) leukemia = system: HL-60(TB) leukemia
SF-268 CNS = system: SF-268 CNS
SNB-75 CNS = system: SNB-75 CNS
IGROV1 ovarian = system: IGROV1 ovarian
RPMI-8226 leukemia = system: RPMI-8226 leukemia
SR leukemia = system: SR leukemia
UO-31 renal = system: UO-31 renal
HT29 colon = system: HT29 colon

Brc1ccc2[nH]cc(-c3nc(-c4c[nH]c5ncccc45)cs3)c2c1
GI50 (LOX IMVI melanoma): 2.46 µM | TGI (LOX IMVI melanoma): 11 µM | GI50 (NCI-H23 lung): 3.55 µM | TGI (NCI-H23 lung): 18.7 µM | GI50 (EKVX NSCLC): 2.13 µM | TGI (EKVX NSCLC): 18.6 µM | GI50 (SK-OV-3 ovarian): 5.71 µM | TGI (SK-OV-3 ovarian): 20.4 µM | GI50 (A498 renal): 1.94 µM | TGI (A498 renal): 10.9 µM | GI50 (UACC-257 melanoma): 2.5 µM | TGI (UACC-257 melanoma): 7.26 µM | GI50 (A549 NSCLC): 3.2 µM | TGI (A549 NSCLC): 16.3 µM | GI50 (KM12 colon): 2.92 µM | TGI (KM12 colon): 10.4 µM | GI50 (HCT-15 colon): 2.41 µM | TGI (HCT-15 colon): 6.86 µM | GI50 (MDA-MB-231 breast): 1.59 µM | TGI (MDA-MB-231 breast): 5.99 µM | GI50 (HS 578T breast): 10.7 µM | TGI (HS 578T breast): > 100 µM | GI50 (T-47D breast): 4.97 µM | TGI (T-47D breast): 20.3 µM | GI50 (OVCAR-4 ovarian): 3.31 µM | TGI (OVCAR-4 ovarian): 20.8 µM | GI50 (OVCAR-5 ovarian): 4.49 µM | TGI (OVCAR-5 ovarian): 17.6 µM | GI50 (CAKI-1 renal): 1.67 µM | TGI (CAKI-1 renal): 10.5 µM | GI50 (SF-295 CNS): 2.74 µM | TGI (SF-295 CNS): 7.31 µM | GI50 (MALME-3M melanoma): 4.46 µM | TGI (MALME-3M melanoma): 18.8 µM | GI50 (PC-3 prostate): 2.99 µM | TGI (PC-3 prostate): 13.5 µM | GI50 (HOP-62 NSCLC): 3.76 µM | TGI (HOP-62 NSCLC): 17 µM | GI50 (ACHN renal): 2.66 µM | TGI (ACHN renal): 12.9 µM | GI50 (MCF7 breast): 2.57 µM | TGI (MCF7 breast): 13.7 µM | GI50 (MOLT-4 leukemia): 2.97 µM | TGI (MOLT-4 leukemia): 35.6 µM | GI50 (U251 CNS): 3.37 µM | TGI (U251 CNS): 12.8 µM | GI50 (NCI-H226 lung): 5.02 µM | TGI (NCI-H226 lung): 21.7 µM | GI50 (OVCAR-3 ovarian): 5.48 µM | TGI (OVCAR-3 ovarian): 18.6 µM | GI50 (COLO 205 colon): 1.13 µM | TGI (COLO 205 colon): 5.77 µM | GI50 (NCI-H522 lung): 3.53 µM | TGI (NCI-H522 lung): 10.8 µM | GI50 (SF-539 CNS): 5.37 µM | TGI (SF-539 CNS): 23.9 µM | GI50 (TK-10 renal): 5.28 µM | TGI (TK-10 renal): 17.8 µM | GI50 (K-562 leukemia): 2.71 µM | TGI (K-562 leukemia): > 100 µM | GI50 (NCI/ADR-RES ovarian): 3.38 µM | TGI (NCI/ADR-RES ovarian): 26.1 µM | GI50 (M14 melanoma): 2.7 µM | TGI (M14 melanoma): 8.6 µM | GI50 (HCC-2998 colon): 3.59 µM | TGI (HCC-2998 colon): 15.7 µM | GI50 (SW-620 colon): 3.79 µM | TGI (SW-620 colon): 14.1 µM | GI50 (DU-145 prostate): 4.14 µM | TGI (DU-145 prostate): 15.7 µM | GI50 (BT-549 breast): 6.07 µM | TGI (BT-549 breast): 18.9 µM | GI50 (HOP-92 NSCLC): 1.98 µM | TGI (HOP-92 NSCLC): 6.89 µM | GI50 (SK-MEL-28 melanoma): 4.27 µM | TGI (SK-MEL-28 melanoma): 16.1 µM | GI50 (SN12C renal): 4.1 µM | TGI (SN12C renal): 19.4 µM | GI50 (786-0 renal): 1.88 µM | TGI (786-0 renal): 4.49 µM | GI50 (SK-MEL-2 melanoma): 7.11 µM | TGI (SK-MEL-2 melanoma): 20.3 µM | GI50 (SK-MEL-5 melanoma): 2.97 µM | TGI (SK-MEL-5 melanoma): 12.9 µM | GI50 (CCRF-CEM leukemia): 3.99 µM | TGI (CCRF-CEM leukemia): 71.8 µM | GI50 (RXF 393 renal): 1.64 µM | TGI (RXF 393 renal): 8.56 µM | GI50 (OVCAR-8 ovarian): 4.07 µM | TGI (OVCAR-8 ovarian): > 100 µM | GI50 (UACC-62 melanoma): 3.64 µM | TGI (UACC-62 melanoma): 16.6 µM | GI50 (HCT-116 colon): 3.09 µM | TGI (HCT-116 colon): 12.2 µM | GI50 (NCI-H460 lung): 3.12 µM | TGI (NCI-H460 lung): 10.9 µM | GI50 (MDA-MB-435): 4.04 µM | TGI (MDA-MB-435): 15.8 µM | GI50 (SNB-19 CNS): 5.29 µM | TGI (SNB-19 CNS): 19.8 µM | GI50 (HL-60(TB) leukemia): 4.29 µM | TGI (HL-60(TB) leukemia): > 100 µM | GI50 (SF-268 CNS): 5.47 µM | TGI (SF-268 CNS): 19.8 µM | GI50 (SNB-75 CNS): 2.08 µM | TGI (SNB-75 CNS): 13.4 µM | GI50 (IGROV1 ovarian): 3.17 µM | TGI (IGROV1 ovarian): 23 µM | GI50 (RPMI-8226 leukemia): 4.82 µM | TGI (RPMI-8226 leukemia): 63.9 µM | GI50 (SR leukemia): 3.25 µM | TGI (SR leukemia): 14.3 µM | GI50 (UO-31 renal): 1.16 µM | TGI (UO-31 renal): 13.1 µM

C=C1C(=O)O[C@H]2[C@H]3O[C@@H](C[C@@H]12)[C@@]1(C)CC[C@H](O1)[C@H](C)CCC[C@H]3C
TGI (LOX IMVI melanoma): 2.94 µM | TGI (NCI-H23 lung): 3.18 µM | TGI (EKVX NSCLC): 2.84 µM | TGI (SK-OV-3 ovarian): 19.5 µM | TGI (A498 renal): 3.17 µM | TGI (UACC-257 melanoma): 3.41 µM | TGI (A549 NSCLC): 5.09 µM | TGI (KM12 colon): 4.05 µM | TGI (HCT-15 colon): 3.55 µM | TGI (MDA-MB-231 breast): 3.12 µM | TGI (HS 578T breast): 12.4 µM | TGI (T-47D breast): 5.53 µM | TGI (OVCAR-4 ovarian): 3.4 µM | TGI (OVCAR-5 ovarian): 3.38 µM | TGI (CAKI-1 renal): 2.58 µM | TGI (SF-295 CNS): 17.4 µM | TGI (MALME-3M melanoma): 3.24 µM | TGI (PC-3 prostate): 3.01 µM | TGI (HT29 colon): 3.04 µM | TGI (HOP-62 NSCLC): 16.3 µM | TGI (ACHN renal): 2.84 µM | TGI (MCF7 breast): 3.98 µM | TGI (U251 CNS): 2.82 µM | TGI (NCI-H226 lung): 3.87 µM | TGI (OVCAR-3 ovarian): 2.37 µM | TGI (COLO 205 colon): 3.33 µM | TGI (NCI-H522 lung): 2.84 µM | TGI (TK-10 renal): 2.98 µM | TGI (K-562 leukemia): 3.59 µM | TGI (NCI/ADR-RES ovarian): 2.99 µM | TGI (HCC-2998 colon): 2.57 µM | TGI (SW-620 colon): 4.26 µM | TGI (DU-145 prostate): 2.86 µM | TGI (BT-549 breast): 2.17 µM | TGI (HOP-92 NSCLC): 3.48 µM | TGI (SK-MEL-28 melanoma): 3.1 µM | TGI (SN12C renal): 6.61 µM | TGI (786-0 renal): 2.63 µM | TGI (SK-MEL-2 melanoma): 4.62 µM | TGI (SK-MEL-5 melanoma): 2.72 µM | TGI (CCRF-CEM leukemia): 2.99 µM | TGI (RXF 393 renal): 5.24 µM | TGI (OVCAR-8 ovarian): 2.82 µM | TGI (UACC-62 melanoma): 6.32 µM | TGI (HCT-116 colon): 2.49 µM | TGI (NCI-H460 lung): 3.7 µM | TGI (MDA-MB-435): 2.61 µM | TGI (SNB-19 CNS): 21.7 µM | TGI (HL-60(TB) leukemia): 1.27 µM | TGI (SF-268 CNS): 3.34 µM | TGI (SNB-75 CNS): 3.15 µM | TGI (IGROV1 ovarian): 2.74 µM | TGI (RPMI-8226 leukemia): 2.35 µM | TGI (SR leukemia): 0.448 µM | TGI (UO-31 renal): 2.9 µM
